ChEMBL document CHEMBL1201862, “PubChem BioAssay data set” (2004)
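Cultured in 96-well plates, cells were exposed to test compound for 48 hours across five concentrations. GI50 = concentration required for 50% inhibition of growth.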 The source made the active and inactive calls. No stated cut-off is given here; in the data, active = GI50 up to about 1.1 µM and inactive = higher.

What was measured:
Experiment in all cases: NCI tumour cell line growth inhibition, 48 h
EKVX = tested on: EKVX
MDA-MB-435 = tested on: MDA-MB-435
NCI-H522 = tested on: NCI-H522
UO-31 = tested on: UO-31
SW-620 = tested on: SW-620
UACC-257 = tested on: UACC-257
M14 = tested on: M14
BT-549 = tested on: BT-549
MDA-N = tested on: MDA-N
HOP-62 = tested on: HOP-62
HT-29 = tested on: HT-29
KM12 = tested on: KM12
Malme-3M = tested on: Malme-3M
SN12C = tested on: SN12C
A549 = tested on: A549
OVCAR-4 = tested on: OVCAR-4
OVCAR-8 = tested on: OVCAR-8
NCI/ADR-RES = tested on: NCI/ADR-RES
HCC 2998 = tested on: HCC 2998

Measured: GI50

OCCCNCc1ccccn1
inactive: EKVX > 100 µM | MDA-MB-435 > 100 µM | NCI-H522 > 100 µM | UO-31 > 100 µM | SW-620 > 100 µM | UACC-257 > 100 µM | M14 > 100 µM | BT-549 > 100 µM | MDA-N > 100 µM | HOP-62 > 100 µM | HT-29 > 100 µM | KM12 > 100 µM | Malme-3M > 100 µM | SN12C > 100 µM | A549 > 100 µM | OVCAR-4 > 100 µM | OVCAR-8 > 100 µM | NCI/ADR-RES > 100 µM

CCCC(CC)c1cc(O)c(O)cc1C(CC)CCC (configuration not stated)
inactive: EKVX > 10 µM | MDA-MB-435 > 10 µM | NCI-H522 > 10 µM | UO-31 > 10 µM | SW-620 > 10 µM | UACC-257 > 10 µM | M14 > 10 µM | BT-549 > 10 µM | MDA-N > 10 µM | HOP-62 > 10 µM | HT-29 > 10 µM | KM12 > 10 µM | Malme-3M > 10 µM | SN12C > 10 µM | A549 > 10 µM | HCC 2998 > 10 µM | OVCAR-4 > 10 µM | OVCAR-8 > 10 µM | NCI/ADR-RES > 10 µM

COc1ccc(C=O)cc1OS(=O)(=O)C(F)(F)C(F)(F)C(F)(F)C(F)(F)F
inactive: EKVX 33.3 µM | MDA-MB-435 19.9 µM | NCI-H522 24.5 µM | UO-31 22.8 µM | SW-620 24.9 µM | UACC-257 36.6 µM | M14 28 µM | BT-549 30.2 µM | MDA-N 19 µM | HOP-62 26.6 µM | HT-29 29.9 µM | KM12 28.4 µM | Malme-3M 23.4 µM | SN12C 42.1 µM | A549 48.4 µM | OVCAR-4 43.8 µM | OVCAR-8 28.1 µM | NCI/ADR-RES 21 µM

Oc1ccc(-c2nc3ccccc3s2)cc1
inactive: EKVX 21.5 µM | MDA-MB-435 37.2 µM | NCI-H522 15.5 µM | UO-31 51.5 µM | SW-620 65.5 µM | UACC-257 31 µM | M14 44.2 µM | BT-549 50.2 µM | MDA-N 32.9 µM | HOP-62 37 µM | HT-29 42.3 µM | KM12 21.1 µM | Malme-3M 47.3 µM | SN12C 38 µM | A549 41.3 µM | OVCAR-4 48.1 µM | OVCAR-8 30.6 µM | NCI/ADR-RES 31.8 µM

O=C(O)c1ccc(C(O)(c2ccccc2)c2ccccc2)cc1
inactive: EKVX > 100 µM | MDA-MB-435 > 100 µM | NCI-H522 > 100 µM | UO-31 > 100 µM | UACC-257 > 100 µM | M14 > 100 µM | BT-549 > 100 µM | MDA-N > 100 µM | HOP-62 > 100 µM | KM12 > 100 µM | Malme-3M > 100 µM | SN12C > 100 µM | A549 > 100 µM | OVCAR-4 > 100 µM | OVCAR-8 > 100 µM | NCI/ADR-RES > 100 µM

CSc1nc(SC)c2c(CO)c(Br)n(Cc3ccccc3)c2n1
inactive: EKVX 29.2 µM | MDA-MB-435 > 100 µM | NCI-H522 14.2 µM | UO-31 12.7 µM | SW-620 > 100 µM | M14 83.2 µM | BT-549 21.6 µM | MDA-N > 100 µM | HOP-62 27 µM | HT-29 33.8 µM | KM12 70 µM | Malme-3M 52.4 µM | SN12C 35.4 µM | A549 29.8 µM | HCC 2998 43.3 µM | OVCAR-4 16.1 µM | OVCAR-8 18 µM | NCI/ADR-RES 24.7 µM

CCCCCCCCCCCCNC(C)=O
inactive: EKVX 11.4 µM | MDA-MB-435 18.2 µM | NCI-H522 14 µM | UO-31 20 µM | SW-620 16.8 µM | UACC-257 23.2 µM | M14 17 µM | BT-549 13.7 µM | MDA-N 16.7 µM | HOP-62 14.3 µM | HT-29 19.5 µM | KM12 17.8 µM | Malme-3M 17.7 µM | SN12C 16.6 µM | A549 27 µM | HCC 2998 17.5 µM | OVCAR-8 18.9 µM | NCI/ADR-RES 17.3 µM

Nc1ccc2nc3ccc(=O)cc-3n(-c3ccccc3)c2c1
inactive: EKVX > 100 µM | MDA-MB-435 66.7 µM | NCI-H522 38.1 µM | UO-31 78.9 µM | SW-620 > 100 µM | M14 > 100 µM | BT-549 73.8 µM | MDA-N > 100 µM | HOP-62 30.5 µM | HT-29 > 100 µM | KM12 7.18 µM | Malme-3M > 100 µM | SN12C > 100 µM | A549 > 100 µM | HCC 2998 > 100 µM | OVCAR-4 > 100 µM | OVCAR-8 > 100 µM | NCI/ADR-RES > 100 µM

CSc1nnc(SC)nn1
inactive: EKVX 16.6 µM | MDA-MB-435 16.9 µM | NCI-H522 16.4 µM | UO-31 15.5 µM | SW-620 17.2 µM | UACC-257 16.6 µM | M14 15.5 µM | BT-549 16 µM | MDA-N 16.1 µM | HOP-62 15.3 µM | HT-29 18.9 µM | KM12 15.3 µM | Malme-3M 13 µM | SN12C 21.1 µM | A549 20.9 µM | OVCAR-4 18.5 µM | OVCAR-8 18.6 µM | NCI/ADR-RES 16.8 µM

CC(C)(CO)CNc1nc(N)nc(Cl)c1C=O
inactive: EKVX 45.9 µM | MDA-MB-435 25.9 µM | NCI-H522 7.67 µM | UO-31 62.1 µM | SW-620 33.5 µM | UACC-257 35.4 µM | BT-549 41.1 µM | MDA-N 25.5 µM | HOP-62 23.2 µM | HT-29 45.2 µM | KM12 90.4 µM | Malme-3M 39.7 µM | SN12C 18.9 µM | A549 71.1 µM | HCC 2998 4.51 µM | OVCAR-4 36.1 µM | OVCAR-8 22.5 µM | NCI/ADR-RES 42.2 µM

C=CCSC1=N/C(=C\c2ccc(C)cc2)C(=O)N1CC=C
inactive: EKVX 10.1 µM | MDA-MB-435 25.9 µM | NCI-H522 26.7 µM | UO-31 22.9 µM | SW-620 32.4 µM | UACC-257 25.6 µM | M14 29 µM | BT-549 23.6 µM | MDA-N 18.6 µM | HOP-62 64.6 µM | HT-29 13.9 µM | KM12 23.7 µM | SN12C 12.7 µM | A549 21.3 µM | HCC 2998 23.8 µM | OVCAR-4 27.3 µM | OVCAR-8 24.8 µM | NCI/ADR-RES 40.5 µM

CN(CC(=O)O)Cc1c[nH]c2ccccc12
inactive: EKVX > 100 µM | MDA-MB-435 > 100 µM | NCI-H522 > 100 µM | UO-31 > 100 µM | SW-620 > 100 µM | UACC-257 > 100 µM | M14 > 100 µM | BT-549 > 100 µM | MDA-N > 100 µM | HOP-62 > 100 µM | HT-29 > 100 µM | KM12 > 100 µM | Malme-3M > 100 µM | SN12C > 100 µM | A549 > 100 µM | OVCAR-4 > 100 µM | OVCAR-8 > 100 µM | NCI/ADR-RES > 100 µM

C1=N/CCNCCNCC/N=C/c2ccccc2OCc2cccc(n2)COc2ccccc2/1
inactive: EKVX > 100 µM | MDA-MB-435 11.3 µM | NCI-H522 37.8 µM | UO-31 72.8 µM | SW-620 36.2 µM | UACC-257 53.7 µM | M14 28.7 µM | BT-549 38.5 µM | MDA-N 15.2 µM | HOP-62 35.2 µM | HT-29 25.6 µM | KM12 48.5 µM | Malme-3M 61.8 µM | SN12C 43.8 µM | A549 > 100 µM | OVCAR-4 47 µM | OVCAR-8 28.6 µM | NCI/ADR-RES 23.1 µM

O=c1c(Nc2ccccc2)cn(CCOc2ccccc2)c(=O)n1CCOc1ccccc1
inactive: EKVX 33.1 µM | MDA-MB-435 > 100 µM | NCI-H522 29.1 µM | UO-31 44.4 µM | SW-620 > 100 µM | UACC-257 83.2 µM | M14 70.5 µM | BT-549 20.8 µM | MDA-N > 100 µM | HOP-62 17.2 µM | HT-29 > 100 µM | KM12 > 100 µM | Malme-3M 79.6 µM | SN12C > 100 µM | A549 91.8 µM | HCC 2998 63.1 µM | OVCAR-4 19.8 µM | NCI/ADR-RES 47.2 µM

OC[C@]1(n2nc3ccccc3n2)OC[C@@H]1c1ccccc1
inactive: EKVX > 100 µM | MDA-MB-435 32.2 µM | NCI-H522 20.1 µM | UO-31 95.3 µM | UACC-257 93.8 µM | M14 90.6 µM | BT-549 28.8 µM | MDA-N 53.7 µM | HOP-62 39.3 µM | HT-29 29.6 µM | KM12 45.6 µM | Malme-3M 19.4 µM | SN12C 43.1 µM | A549 64.3 µM | HCC 2998 > 100 µM | OVCAR-4 16.9 µM | OVCAR-8 51.5 µM | NCI/ADR-RES 57.3 µM

Cc1cc(C)n(CN(Cn2nc(C)cc2C)c2ccc(N(Cn3nc(C)cc3C)Cn3nc(C)cc3C)cc2)n1
inactive: EKVX 26.9 µM | MDA-MB-435 17.7 µM | NCI-H522 20.2 µM | UO-31 28.4 µM | SW-620 16.6 µM | UACC-257 18.6 µM | M14 20 µM | BT-549 19.2 µM | MDA-N 18.9 µM | HOP-62 25.8 µM | HT-29 21.9 µM | KM12 24.2 µM | Malme-3M 22.3 µM | SN12C 27.4 µM | A549 28 µM | OVCAR-4 17.2 µM | OVCAR-8 27.4 µM | NCI/ADR-RES 19.1 µM
